Our source for the zone of inhibition values is ChEMBL document CHEMBL1149836, “Antifungal metabolites from the plant endophytic fungus Pestalotiopsis foedan” (2008).

Type in all cases: functional
The test system of one test is Geotrichum candidum. The experiment in a line: Antifungal activity against Geotrichum candidum AS2.498 at 100 ug/ml after 48 hrs by agar diffusion assay. The note with it: read-out: IZ. (In general: In agar diffusion tests the substance spreads into inoculated agar from a disc or well.)
The next test deals with Candida albicans. Nature of the test: Antifungal activity against Candida albicans ATCC 10231 at 100 ug/ml after 48 hrs by agar diffusion assay. The settings on record: ATCC 10231, 48 h, read-out: IZ.
For another test, the system named is Aspergillus fumigatus. Nature of the test: Antifungal activity against Aspergillus fumigatus ATCC 10894 at 100 ug/ml after 48 hrs by agar diffusion assay. The note with it: ATCC 10894, 48 h, read-out: IZ.

Regarding `OC(Cn1cncn1)(Cn1cncn1)c1ccc(F)cc1F` [FLUCONAZOLE], the zone of inhibition at 100 µg/mL in the test on Geotrichum candidum, in the test on Candida albicans and in the test on Aspergillus fumigatus was 18 mm in each case.

For `C[C@H]1CCC[C@@]2(CC3=C(CO2)C(=O)[C@](C)(O)[C@@H](O)C3)O1` [PESTAFOLIDE A], the zone of inhibition at 100 µg/mL with Aspergillus fumigatus turned out to be 10 mm. As for `Cc1c(O)cc2c(c1O)C(=O)O[C@@H]2[C@H](C)O` [PESTAPHTHALIDE A], the zone of inhibition at 100 µg/mL in the test with Candida albicans came to 13 mm. With `Cc1c(O)cc2c(c1O)C(=O)O[C@H]2[C@H](C)O` [PESTAPHTHALIDE B], in the test on Geotrichum candidum, the zone of inhibition at 100 µg/mL turned out to be 11 mm.
